Holding throughout (assay type): functional
For assay [1], the system named is Rattus norvegicus. The experiment in a line: Hepatoprotective activity against thioacetamide-induced toxicity in various levels of serum GPT in rats was evaluated at 10 mg/kg dose (p.o. x 7 days).
The species named for assay [2] is Rattus norvegicus. The experiment in a line: Percent protection afforded by the compound in serum alkaline phosphatase (APL) level was determined. Set-up: concentration or dose not given beside the values.
Assay [3] has as its system Rattus norvegicus. The assay can be described thus: Hepatoprotective activity against thioacetamide-induced toxicity in various levels of serum GOT in rats was evaluated at 10 mg/kg dose (p.o. x 7 days).
The species named for assay [4] is Rattus norvegicus. The experiment in a line: Percent protection afforded by the compound in serum glutamate pyruvate transaminase (GPT) level was determined. Set-up: concentration or dose not given beside the values.
Assay [5] is filed under the species Rattus norvegicus. The assay can be described thus: Percent protection afforded by the compound in serum glutamate oxaloacetate transaminase (GOT) level was determined. Set-up: concentration or dose not given beside the values.
Assay [6] concerns Rattus norvegicus. The assay can be described thus: Hepatoprotective activity against thioacetamide-induced toxicity in various levels of serum ALP in rats was evaluated at 10 mg/kg dose (p.o. x 7 days).

Turning to `COC(=O)c1c(SC)cc(-c2ccc(Cl)cc2)cc1-c1ccc(Cl)cc1`, the Enzyme level in the assay with Rattus norvegicus [1] (route oral) is reported as 248.5 U l-1; with Rattus norvegicus [3] (route oral), 186.3 U l-1; in the assay with Rattus norvegicus [6] (route oral), 268.2 U l-1. The values for the Protection in the assay filed under Rattus norvegicus [2], in the assay filed under Rattus norvegicus [4] and in the assay filed under Rattus norvegicus [5] were 33%, 51% and 37%, respectively.

For the molecule `COC(=O)c1c(SC)cc(-c2ccc(Cl)cc2)cc1-c1ccc(Cl)c(Cl)c1`, the Enzyme level came to 258.1 U l-1 in the assay on Rattus norvegicus [1] (route oral), 147.3 U l-1 in the assay with Rattus norvegicus [3] (route oral) and 245.1 U l-1 in the assay on Rattus norvegicus [6] (route oral). Further, the Protection in the assay filed under Rattus norvegicus [2] came out at 42%; in the assay listed under Rattus norvegicus [4] it was 49%; in the assay listed under Rattus norvegicus [5] it was 66%.

Take `COC(=O)c1c(SC)cc(-c2ccc(Cl)cc2)cc1-c1ccc(F)cc1`: the figures for the Enzyme level with Rattus norvegicus [1] (route oral), in the assay on Rattus norvegicus [3] (route oral) and in the assay with Rattus norvegicus [6] (route oral) were 392.3 U l-1, 222.3 U l-1 and 334.2 U l-1, respectively. The Protection in the assay filed under Rattus norvegicus [2] is reported as 6%; in the assay listed under Rattus norvegicus [4], 5%; in the assay listed under Rattus norvegicus [5], 10%.

Regarding `COC(=O)c1c(SC)cc(-c2ccc(Br)cc2)cc1-c1ccc(Br)cc1`, the Enzyme level came to 295.4 U l-1 in the assay with Rattus norvegicus [1] (route oral), 202.1 U l-1 with Rattus norvegicus [3] (route oral) and 324.2 U l-1 in the assay with Rattus norvegicus [6] (route oral). Further, the results for the Protection in the assay listed under Rattus norvegicus [2], in the assay filed under Rattus norvegicus [4] and in the assay filed under Rattus norvegicus [5] were 10%, 36% and 25%, respectively.

Consider `COC(=O)c1c(SC)cc(-c2ccc(F)c(Cl)c2)cc1-c1cccc([N+](=O)[O-])c1`, for which the Enzyme level with Rattus norvegicus [1] (route oral) is given as 370.2 U l-1; with Rattus norvegicus [3] (route oral), 211.6 U l-1; in the assay on Rattus norvegicus [6] (route oral), 304.1 U l-1. The results for the Protection in the assay filed under Rattus norvegicus [2], in the assay listed under Rattus norvegicus [4] and in the assay listed under Rattus norvegicus [5] were 18%, 12% and 18%, respectively.

In the case of SILYMARIN, the Enzyme level with Rattus norvegicus [1] turned out to be 218 U l-1; in the assay with Rattus norvegicus [3], 150 U l-1; in the assay on Rattus norvegicus [6] it was 220 U l-1. Further, the figures for the Protection in the assay listed under Rattus norvegicus [2], in the assay listed under Rattus norvegicus [4] and in the assay filed under Rattus norvegicus [5] were 52%, 61% and 64%, respectively.

As for `COC(=O)c1c(SC)cc(-c2ccc(F)cc2)cc1-c1cccc([N+](=O)[O-])c1`, the Enzyme level is given as 360.1 U l-1 with Rattus norvegicus [1] (route oral), 208.9 U l-1 with Rattus norvegicus [3] (route oral) and 307.2 U l-1 in the assay with Rattus norvegicus [6] (route oral). The Protection in the assay listed under Rattus norvegicus [2] was 17%; in the assay listed under Rattus norvegicus [4], 15%; in the assay filed under Rattus norvegicus [5], 20%.

As for `COC(=O)c1c(SC)cc(-c2ccc(Cl)cc2)cc1-c1cccc([N+](=O)[O-])c1`, the figures for the Enzyme level with Rattus norvegicus [1] (route oral), with Rattus norvegicus [3] (route oral) and in the assay with Rattus norvegicus [6] (route oral) were 190.1 U l-1, 149.9 U l-1 and 203.6 U l-1, respectively. Moreover, the Protection in the assay filed under Rattus norvegicus [2] is listed as 60%; in the assay filed under Rattus norvegicus [4], 70%; in the assay listed under Rattus norvegicus [5] it was 64%.

For the molecule `COC(=O)c1c(SC)cc(-c2ccc(F)cc2)cc1-c1ccc(Cl)c(Cl)c1`, the Enzyme level in the assay with Rattus norvegicus [1] (route oral) came out at 186.3 U l-1; in the assay on Rattus norvegicus [3] (route oral), 159.3 U l-1; with Rattus norvegicus [6] (route oral), 235.5 U l-1. Also, the results for the Protection in the assay filed under Rattus norvegicus [2], in the assay filed under Rattus norvegicus [4] and in the assay filed under Rattus norvegicus [5] were 46%, 71% and 57%, respectively.

On to `COC(=O)c1c(SC)cc(-c2ccc(Cl)cc2)cc1-c1ccc([N+](=O)[O-])cc1`, for which the Enzyme level in the assay on Rattus norvegicus [1] (route oral) turned out to be 270.4 U l-1; in the assay on Rattus norvegicus [3] (route oral) it was 229.4 U l-1; with Rattus norvegicus [6] (route oral) it was 289.9 U l-1. In addition, the results for the Protection in the assay listed under Rattus norvegicus [2], in the assay filed under Rattus norvegicus [4] and in the assay filed under Rattus norvegicus [5] were 24%, 44% and 5%, respectively.

`COC(=O)c1c(SC)cc(-c2ccc(F)cc2)cc1-c1ccc(F)cc1`: the Enzyme level in the assay on Rattus norvegicus [1] (route oral) was 370.2 U l-1; in the assay with Rattus norvegicus [3] (route oral), 229.1 U l-1; with Rattus norvegicus [6] (route oral), 341.2 U l-1. Besides, the Protection in the assay listed under Rattus norvegicus [2] is listed as 3%; in the assay listed under Rattus norvegicus [4], 12%; in the assay filed under Rattus norvegicus [5] it was 5%.

Consider `COC(=O)c1c(SC)cc(-c2ccc(Cl)cc2)cc1-c1ccc(Br)cc1`, for which the Enzyme level with Rattus norvegicus [1] (route oral) came out at 361.5 U l-1; in the assay on Rattus norvegicus [3] (route oral), 208.3 U l-1; with Rattus norvegicus [6] (route oral), 330.2 U l-1. Moreover, the Protection in the assay listed under Rattus norvegicus [2] is 8%; in the assay listed under Rattus norvegicus [4] it was 15%; in the assay filed under Rattus norvegicus [5], 20%.

(Values after ChEMBL document CHEMBL1131277, “Functionalized 1,3-teraryls as a new class of hepatoprotectants. Part V” (1998).)
